Measurements published in paper PMC2701352 (Biochemical pharmacology, 2008).
“Also recorded” adds a separate entry of the source.

Tests used:
hMC4R WT = hMC4R WT (Homo sapiens, UniProt P32245); assay: cAMP production, hMC4R WT in HEK-293 cells; assay type: cell-based
hMC4R/TM2 hMC1R = hMC4R/TM2 hMC1R (Homo sapiens, UniProt P32245, A89S/G98V/I102A/M91L/S85C/S99L/V88L/V95G); assay: cAMP production, hMC4R/TM2hMC1R chimera; assay type: cell-based
hMC1R WT = hMC1R WT (Homo sapiens, UniProt Q01726); assay: cAMP production, hMC1R WT in HEK-293 cells; assay type: cell-based
Sequence of hMC1R WT (Q01726 whole entry): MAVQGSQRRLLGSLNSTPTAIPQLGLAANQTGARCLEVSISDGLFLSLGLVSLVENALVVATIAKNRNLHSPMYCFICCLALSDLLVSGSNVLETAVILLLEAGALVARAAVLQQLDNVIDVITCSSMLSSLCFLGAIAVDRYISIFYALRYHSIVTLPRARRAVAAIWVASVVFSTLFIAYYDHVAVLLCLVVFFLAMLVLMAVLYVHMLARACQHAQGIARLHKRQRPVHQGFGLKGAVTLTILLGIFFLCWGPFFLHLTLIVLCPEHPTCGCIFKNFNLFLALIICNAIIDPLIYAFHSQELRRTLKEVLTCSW

hMC4R/TM3 hMC1R = hMC4R/TM3 hMC1R (Homo sapiens, UniProt P32245+Q01726); assay: cAMP production, hMC4R/TM3hMC1R chimera
Sequence of hMC4R/TM3 hMC1R (P32245 1-121 limits assumed): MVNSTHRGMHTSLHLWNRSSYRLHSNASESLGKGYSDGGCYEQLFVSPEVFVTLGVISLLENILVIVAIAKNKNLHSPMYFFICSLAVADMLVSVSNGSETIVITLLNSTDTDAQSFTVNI
Sequence of hMC4R/TM3 hMC1R (Q01726 117-137 limits assumed): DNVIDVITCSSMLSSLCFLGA
Sequence of hMC4R/TM3 hMC1R (P32245 143-332 limits assumed): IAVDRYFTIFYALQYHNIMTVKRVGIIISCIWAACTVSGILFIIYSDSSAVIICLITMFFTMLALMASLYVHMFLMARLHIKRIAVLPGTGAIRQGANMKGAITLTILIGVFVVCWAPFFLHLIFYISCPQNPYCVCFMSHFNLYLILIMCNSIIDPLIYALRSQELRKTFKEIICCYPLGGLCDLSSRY

hMC4R/TM4 hMC1R = hMC4R/TM4 hMC1R (Homo sapiens, UniProt P32245+Q01726); assay: cAMP production, hMC4R/TM4hMC1R chimera
Sequence of hMC4R/TM4 hMC1R (P32245 1-172 limits assumed, other chains not shown): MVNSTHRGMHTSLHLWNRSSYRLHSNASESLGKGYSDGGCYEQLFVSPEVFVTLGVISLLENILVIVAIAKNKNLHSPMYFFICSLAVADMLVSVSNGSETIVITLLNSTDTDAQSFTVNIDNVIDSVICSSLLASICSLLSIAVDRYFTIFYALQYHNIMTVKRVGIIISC
Sequence of hMC4R/TM4 hMC1R (P32245 188-332 limits assumed, other chains not shown): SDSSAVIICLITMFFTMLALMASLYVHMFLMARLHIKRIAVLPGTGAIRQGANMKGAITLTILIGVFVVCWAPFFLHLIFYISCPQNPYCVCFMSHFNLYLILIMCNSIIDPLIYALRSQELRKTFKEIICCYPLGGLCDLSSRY

hMC4R/TM5 hMC1R = assay: cAMP production, hMC4R/TM5hMC1R chimera; conditions: Fig. 4B, 4D
hMC4R/TM6 hMC1R = hMC4R/TM6 hMC1R (Homo sapiens, UniProt P32245+Q01726); assay: cAMP production, hMC4R/TM6hMC1R chimera
Sequence of hMC4R/TM6 hMC1R (P32245 1-251 limits assumed, other chains not shown): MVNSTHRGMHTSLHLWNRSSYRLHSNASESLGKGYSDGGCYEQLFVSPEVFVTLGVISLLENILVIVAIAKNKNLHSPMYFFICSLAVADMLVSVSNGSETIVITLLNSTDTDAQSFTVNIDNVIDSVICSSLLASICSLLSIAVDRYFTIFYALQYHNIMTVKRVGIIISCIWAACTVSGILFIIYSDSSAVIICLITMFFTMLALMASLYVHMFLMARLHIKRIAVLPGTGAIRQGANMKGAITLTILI
Sequence of hMC4R/TM6 hMC1R (P32245 271-332 limits assumed, other chains not shown): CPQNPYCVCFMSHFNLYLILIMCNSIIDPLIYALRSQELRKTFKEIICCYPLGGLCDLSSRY

Sequence of hMC4R WT (P32245 whole entry): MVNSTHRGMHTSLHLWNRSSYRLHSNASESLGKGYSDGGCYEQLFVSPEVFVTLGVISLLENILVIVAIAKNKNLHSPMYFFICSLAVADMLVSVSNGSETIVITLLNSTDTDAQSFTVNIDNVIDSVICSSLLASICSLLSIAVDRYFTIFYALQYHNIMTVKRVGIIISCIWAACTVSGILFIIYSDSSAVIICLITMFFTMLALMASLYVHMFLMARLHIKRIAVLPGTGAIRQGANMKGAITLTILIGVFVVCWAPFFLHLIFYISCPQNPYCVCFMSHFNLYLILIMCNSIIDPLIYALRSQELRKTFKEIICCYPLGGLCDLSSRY
Sequence of hMC4R/TM2 hMC1R (P32245 whole entry S85C/V88L/A89S/M91L/V95G/G98V/S99L/I102A): as the sequence (P32245 whole entry) above, with S85C, V88L, A89S, M91L, V95G, G98V, S99L, I102A counted along it

CCCC[C@H](NC(=O)[C@@H](NC(=O)[C@@H](N)Cc1ccc(O)cc1)C(C)C)C(=O)NCC(=O)N1CCC[C@H]1C(=O)N[C@H](Cc1ccccc1)C(=O)N[C@@H](CCCNC(=N)N)C(=O)N[C@@H](Cc1c[nH]c2ccccc12)C(=O)N[C@@H](CC(=O)O)C(=O)N[C@@H](CCCNC(=N)N)C(=O)N[C@@H](Cc1ccccc1)C(=O)NCC(N)=O [[DPhe^6]-γ-MSH, H-Tyr-Val-Nle-Gly-Pro-DPhe-Arg-Trp-Asp-Arg-Phe-Gly-NH2]
EC50 (hMC4R WT): 35 nM
cAMP production, potency and agonism (in words) (hMC4R WT; Fig. 2B, 2D): dose-dependently increased cAMP generation; also recorded: non selective agonist for the MC1R and MC4R
EC50 (hMC4R/TM2 hMC1R): 2.9 ± 0.3 nM
cAMP potency (in words) (hMC4R/TM2 hMC1R; Fig. 3B, 3D): did not significantly alter [DPhe^6]-γ-MSH potency
EC50 (hMC1R WT): 2.3 ± 0.5 nM
cAMP production, potency and agonism (in words) (hMC1R WT; Fig. 2B, 2D): dose-dependently increased cAMP generation; also recorded: non selective agonist for the MC1R and MC4R
EC50 (hMC4R/TM3 hMC1R): 3.3 ± 0.5 nM
cAMP potency (in words) (hMC4R/TM3 hMC1R; Fig. 3B, 3D): did not significantly alter [DPhe^6]-γ-MSH potency
EC50 (hMC4R/TM4 hMC1R): 3.1 ± 0.3 nM
cAMP potency (in words) (hMC4R/TM4 hMC1R; Figs. 3 and 4): did not significantly alter [DPhe^6]-γ-MSH potency
cAMP potency (in words) (hMC4R/TM5 hMC1R): did not significantly alter [DPhe^6]-γ-MSH potency
EC50 (hMC4R/TM6 hMC1R): 3.2 ± 0.3 nM
cAMP potency (in words) (hMC4R/TM6 hMC1R; Fig. 4B, 4D): did not significantly alter [DPhe^6]-γ-MSH potency
